Where a name gives a salt, the structure may show the parent alone.
What was measured:
VEGF-induced edema = assay: Miles assay, VEGF as agonist; type: in vivo, Sprague-Dawley rats; conditions: VEGF 200 ng/injection site, vehicle 12
Description: A rodent model of vascular edema, the Miles assay, was used to screen compounds for their ability to inhibit VEGF-induced edema. […] Sprague-Dawley rats were first injected IV with vehicle alone or test agent, followed by IV injection of Evans blue dye, followed by intradermal injections of saline and VEGF (200 ng/injection site) along both shaved flanks. […] The ability of test agent to influence vascular edema was tested as above, except that the ability to block edema was tested using either VEGF or histamine as the agonist (200 ng and 10 µg/injection site, respectively).

[1] = Acute myocardial infarct model, 60 min LAD occlusion followed by reperfusion; type: in vivo, Sprague-Dawley rats; conditions: for Infarct (% AAR, mean ± SEM): 24 hr post-treatment
Description: Myocardial infarcts were created in Sprague-Dawley rats (200-300 g body weight) by a 60 min occlusion of the LAD followed by LAD reperfusion. At 90 min post-reperfusion, either vehicle alone or test agents were injected IV. At 24 hr post-treatment, the ischemic zone (area at-risk, AAR) was delineated by re-ligation of the LAD followed by IV injection of alkali blue dye, after which hearts were sectioned along the short axis and stained using triphenyltetrazolium chloride to delineate viable from infarcted myocardium. Photographic images were then analyzed using morphometric software to calculate infarct area as a percent of the at-risk area.
In one group, 3-[2,4-diamino-6-(3-hydroxyphenyl)pteridin-7-yl] phenol dihydrochloride salt was administered at both 60 and 240 min post-occlusion.

[2] = Cerebral stroke model, permanent middle cerebral artery occlusion; type: in vivo, mice; conditions: 1 mg/kg BW IV 60 min after ligation; for Infarct area in mm^3 (mean ± SEM): twenty four hours later; for % Infarct reduction: versus vehicle of the same study
Description: Cerebral strokes were created in mice by permanent ligation of the middle cerebral artery using a cauterizing tool, followed 60 min later by IV injection of either vehicle alone (50% PEG400 in water) or test agents (at 1 mg/kg BW). Twenty four hours later, brains were sectioned and stained using triphenyltetrazolium chloride to delineate viable from infarcted tissue.

[3] = system: CT-26 Colon carcinoma cells; assay: CT-26 colon carcinoma lung metastases model, net tumor burden; type: in vivo, Balb/C mice
Description: FIGURE 3 (omitted) illustrates the effect of compounds administered in conjunction with doxorubicin in an in vivo model of metastatic colon cancer (CT-26 adenocarcinoma). Syngeneic CT-26 Colon carcinoma cells were injected I.V. in order to establish lung metastases in Balb/C mice. Beginning 10 days after cells were injected, test agents were given I.P. every 3 days for 3 cycles. Animals were sacrificed at day 20, lungs were collected, and weighed. Net tumor burden is the weight of tumor-bearing lungs minus the average weight of normal control lungs. N=5/group, p<0.02. In the experiment compound A is 6,7-bis(4-hydroxyphenyl)-pteridin-4-ylamine sulfate salt, and compound B is 6,7-diphenyl-pteridine-2,4-diamine.
FIGURE 4 (omitted) illustrates the effects of compounds of the present invention for co-drug therapy with Taxotere as described herein. Syngeneic CT-26 Colon carcinoma cells were used in order to establish lung metastases in Balb/C mice as described above. 6,7-bis(4-hydroxyphenyl)-pteridin-4-ylamine, sulfate salt (compound A) and 6,7-diphenyl-pteridine-2,4-diamine (compound B) were used.
FIGURE 6 (omitted) illustrates the effect of compounds administered in conjunction with docetaxel in the in vivo model of metastatic colon cancer (CT-26 adenocarcinoma) described for FIGURE 4. 2,3-Bis(3,4-dihydroxyphenyl)-pyrido[2,3-b]pyrazin-6-ylamine dihydrochloride salt (compound C) from FIGURE 4 is shown in FIGURE 6 as compound C. N=5/group, p<0.02.
(§1) Syngeneic CT-26 Colon carcinoma cells were injected I. V. in order to establish lung metastases in Balb/C mice. Beginning 10 days after cells were injected, indicated test agents were given I. P. every 3 days for 3 cycles. Animals were sacrificed at day 20, lungs were collected, and weighed. Net tumor burden is the weight of tumor-bearing lungs minus the average weight of normal control lungs. N=5/group, p < 0.02.
as §1, with “FIGURE 4 (omitted) illustrates the effects of the compounds of the present invention for co- drug therapy with docetaxel (Taxoteree-in this example formulated in 12. 5% Cremaphore: 12.5% Ethanol: 75% normal saline) as described herein. Syngeneic” for “Syngeneic”, “I.V.” for “I. V.”
FIGURE 6 (omitted) illustrates the effect of compounds administered in conjunction with docetaxel (Taxoreree-in this example formulated in 12.5% Cremaphore: 12.5% Ethanol:75% normal saline) in the in vivo model of metastatic colon cancer (CT-26 adenocarcinoma) described for FIGURE 4 (omitted). […] N=5/group,p < 0.02.
Similarly, 2,3-bis (4-hydroxyphenyl)-pyrido [2,3-b] pyrazin-6-ylamine dihydrochloride salt inhibited tumor burden alone or with co-drug therapy using docetaxel (Taxotere@~in this example formulated in 12.5% Cremaphore : 12.5% Ethanol:75% normal saline) as described herein. Syngeneic CT-26 Colon carcinoma cells were injected I.V. in order to establish lung metastases in Balb/C mice. Beginning 10 days after cells were injected, indicated test agents were given I.P. every 3 days for 3 cycles. Animals were sacrificed at day 20, lungs were collected, and weighed.

[4] = 0.1 mg/kg BW IV at 90 min post-reperfusion
[5] = 0.1 mg/kg BW, versus vehicle of the same study
[6] = 1.0 mg/kg BW IV at 90 min post-reperfusion
[7] = 1.0 mg/kg BW, versus vehicle of the same study
[8] = in combination with docetaxel, I.P. every 3 days for 3 cycles, day 20
[9] = stand alone agent, docetaxel co-drug studies (FIGURES 4 and 6), I.P. every 3 days for 3 cycles, day 20

O=C(Nc1ccccc1-c1cc2ccccc2[nH]1)c1ccc(O)c(O)c1 [3,4-Dihydroxy-N-[2-(1H-indol-2-yl)-phenyl]-benzamide]
Score (scale of 0-12) (VEGF-induced edema; 0.1 mg/kg IV): 6

Cl.Nc1ncnc2nc(-c3ccc(O)c(O)c3)c(-c3ccc(O)c(O)c3)nc12 [4-[4-amino-6-(3,4-dihydroxyphenyl)pteridin-7-yl]benzene-1,2-diol chloride salt]
Infarct (% AAR, mean ± SEM) [1, 4]: 37.1 ± 2.6 % AAR | % Infarct reduction [1, 5]: 40% | Infarct (% AAR, mean ± SEM) [1, 6]: 40.1 ± 2.0 % AAR | % Infarct reduction [1, 7]: 35%

Oc1cccc(-c2nc3nc(O)nc(O)c3nc2-c2cccc(O)c2)c1 [6,7-Bis-(3-hydroxy-phenyl)-pteridine-2,4-diol]
Score (scale of 0-12) (VEGF-induced edema; 1.5 mg/kg IV): 3

O=C1c2ccccc2C(=O)N1c1ccccc1-c1cc2ccccc2[nH]1 [2-[2-(1H-indol-2-yl)-phenyl]-isoindole-1,3-dione]
Score (scale of 0-12) (VEGF-induced edema; 1.5 mg/kg IV): 3

Nc1ncnc2nc(-c3ccccn3)c(-c3ccccn3)nc12 [6,7-Di-pyridin-2-yl-pteridin-4-ylamine]
Infarct area in mm^3 (mean ± SEM) [2]: 27.2 ± 2.63 mm^3 | % Infarct reduction [2]: Not significant

Oc1nc(O)c2nc(-c3ccccc3)c(-c3ccc(Oc4ccc(-c5nc6c(O)nc(O)nc6nc5-c5ccccc5)cc4)cc3)nc2n1
Score (scale of 0-12) (VEGF-induced edema; 1.5 mg/kg IV): 3

O=C(Cc1ccc(O)cc1)Nc1ccccc1-c1cc2ccccc2[nH]1 [2-(4-Hydroxy-phenyl)-N-[2-(1H-indol-2-yl)-phenyl]-acetamide]
Score (scale of 0-12) (VEGF-induced edema; 1.5 mg/kg IV): 2

Cl.Nc1ncnc2nc(-c3cccc(O)c3)c(-c3cccc(O)c3)nc12 [6,7-Bis(3-hydroxyphenyl)-pteridine-4-ylamine hydrochloride salt]
Infarct (% AAR, mean ± SEM) [1, 4]: 39.1 ± 4.2 % AAR | % Infarct reduction [1, 5]: 37% | Infarct (% AAR, mean ± SEM) [1, 6]: 39.1 ± 7.5 % AAR | % Infarct reduction [1, 7]: 37%

O=C(CCc1ccc(O)cc1)Nc1ccccc1-c1cc2ccccc2[nH]1 [3-(4-Hydroxy-phenyl)-N-[2-(1H-indol-2-yl)-phenyl]-propionamide]
Score (scale of 0-12) (VEGF-induced edema; 1.5 mg/kg IV): 2

Cl.Cl.Nc1ccc2nc(-c3ccc(O)c(O)c3)c(-c3ccc(O)c(O)c3)nc2n1 [compound C, 2,3-Bis(3,4-dihydroxyphenyl)-pyrido[2,3-b]pyrazin-6-ylamine dihydrochloride salt]
reduction of tumor burden [3, 8]: greater than 85% | reduction of tumor burden [3, 9]: 65%

Nc1nc(N)c2nc(-c3ccccc3)c(-c3ccccc3)nc2n1 [compound B, 6,7-diphenyl-pteridine-2,4-diamine]
reduction of tumor burden ([3]; in combination with doxorubicin as printed, FIGURE 4 experiment (docetaxel study)): greater than 70% | reduction of tumor burden ([3]; in combination with doxorubicin, FIGURE 3 experiment, I.P. every 3 days for 3 cycles, day 20): greater than 65% | tumor burden in lungs (photo of representative lung samples) ([3]; plus doxorubicin, compared with vehicle (control) lungs, FIGURE 5): dramatic reduction in tumor burden | reduction of tumor burden ([3]; stand alone agent, FIGURE 3 experiment (doxorubicin study), I.P. every 3 days for 3 cycles, day 20): 35% | reduction of tumor burden [3, 9]: 20%

Nc1nc(N)c2nc(CNCc3ccc4ccccc4c3)cnc2n1 [6-{[(Naphthalen-2-ylmethyl)-amino]-methyl}-pteridine-2,4-diamine]
Score (scale of 0-12) (VEGF-induced edema; 0.1 mg/kg IV): 4

Oc1nc(O)c2nc(-c3ccccc3)c(-c3ccccc3)nc2n1 [6,7-Diphenyl-pteridine-2,4-diol]
Infarct area in mm^3 (mean ± SEM) [2]: 20.2 ± 4.19 mm^3 | % Infarct reduction [2]: 52%

Cl.Oc1ccc(Nc2ncnc3ncc(-c4ccccc4)nc23)c2cccnc12 [5-(6-Phenyl-pteridin-4-ylamino)-quinolin-8-ol hydrochloride salt]
Score (scale of 0-12) (VEGF-induced edema; 0.5 mg/kg IV): 5

O=S(=O)(O)c1cc(Nc2ncnc3ncc(-c4ccccc4)nc23)ccc1O [2-Hydroxy-5-(6-phenyl-pteridin-4-ylamino)-benzenesulfonic acid]
Score (scale of 0-12) (VEGF-induced edema; 0.5 mg/kg IV): 6

Cl.Cl.Nc1ccc2nc(-c3ccc(O)cc3)c(-c3ccc(O)cc3)nc2n1 [2,3-bis(4-hydroxyphenyl)-pyrido[2,3-b]pyrazin-6-ylamine dihydrochloride salt]
reduction of tumor burden [3, 8]: greater than 78% | reduction of tumor burden [3, 9]: 63%

Nc1nc(N)c2nc(-c3ccc(O)c(O)c3)c(-c3ccc(O)c(O)c3)nc2n1 [6,7-bis(3,4-dihydroxyphenyl)-pteridine-2,4,-diamine, hydrochloride salt]
Infarct (% AAR, mean ± SEM) ([1]; 1.5 mg/kg BW IV at 90 min post-reperfusion): 36.3 ±6.3 % AAR | % Infarct reduction ([1]; 1.5 mg/kg BW, versus vehicle of the same study): 33%

Br.Br.Nc1nc(N)c2nc(-c3cccc(O)c3)c(-c3cccc(O)c3)nc2n1 [3-[2,4-Diamino-6-(3-hydroxyphenyl)pteridin-7-yl]phenol dibromide salt]
Infarct (% AAR, mean ± SEM) ([1]; 0.5 mg/kg BW IV at 90 min post-reperfusion, Study 5): 31.6 ± 6.2 % AAR | % Infarct reduction ([1]; 0.5 mg/kg BW, versus vehicle, Study 5): 42%

O=C(Cc1ccc(O)c(O)c1)Nc1ccccc1-c1cc2ccccc2[nH]1 [2-(3,4-Dihydroxy-phenyl)-N-[2-(1H-indol-2-yl)-phenyl]-acetamide]
Score (scale of 0-12) (VEGF-induced edema; 0.5 mg/kg IV): 7

Cl.Nc1cncc2nc(-c3ccc(O)c(O)c3)c(-c3ccc(O)c(O)c3)nc12 [2,3-(3,4-Dihydroxyphenyl)-pyrido[3,4-b]pyrazin-8-ylamine]
Score (scale of 0-12) (VEGF-induced edema; 0.01 mg/kg IV): 6

O=C(Nc1ccccc1C1Cc2ccccc2N1)c1ccccc1O (stereo not shown) [N-[2-(2,3-Dihydro-1H-indol-2-yl)-phenyl]-2-hydroxy-benzamide]
Score (scale of 0-12) (VEGF-induced edema; 0.5 mg/kg IV): 5

Cl.Cl.Nc1nc(N)c2nc(-c3cccc(O)c3)c(-c3cccc(O)c3)nc2n1 [3-[2,4-diamino-6-(3-hydroxyphenyl)pteridin-7-yl] phenol dihydrochloride salt]
Score (scale of 0-12) (VEGF-induced edema; 0.01 mg/kg IV): 3 | Score (scale of 0-12) (VEGF-induced edema; 0.1 mg/kg IV): 4 | Score (scale of 0-12) (VEGF-induced edema; 1 mg/kg IV): 4 | Infarct (% AAR, mean ± SEM) [1, 4]: 37.7 ± 5.8 % AAR | % Infarct reduction [1, 5]: 30% | Infarct (% AAR, mean ± SEM) [1, 6]: 46.4 ± 2.6 % AAR | % Infarct reduction [1, 7]: Not significant

Nc1nc(N)c2nc(-c3ccc(O)cc3)cnc2n1 [4-(2,4-Diamno-pteridin-6-yl)-phenol (sulfate salt)]
Score (scale of 0-12) (VEGF-induced edema; 5 mg/kg IV, lower score = greater anti-edema activity): 2

Nc1nc(N)c2nc(CNCc3ccccn3)cnc2n1 [6-{[(Pyridin-2-ylmethyl)-amino]-methyl}-pteridine-2,4-diamine]
Score (scale of 0-12) (VEGF-induced edema; 0.1 mg/kg IV): 4

Source: patent EP2039683B1, “Vasculostatic agents and methods of use thereof” (Targegen, Inc., priority 2002, dated 2004)
